# Patent publication US20230416275A1, “MODULATORS OF CYSTIC FIBROSIS TRANSMEMBRANE CONDUCTANCE REGULATOR” (VERTEX PHARMACEUTICALS INCORPORATED, priority 2020, published 2023)
# Biological target: CFTR-mediated chloride transport in human intestinal epithelial enteroid cells (Homo sapiens, UniProt P13569)
# Assay: Membrane potential dye, Enteroid Assay A
# Type: cell-based
# Conditions: for Ent. A Max Activity (%): % of chloride transport of triple combination control (3 μM N-[(6-amino-2-pyridyl)sulfonyl]-6-(3-fluoro-5-isobutoxy-phenyl)-2-[(4S)-2,2,4-trimethylpyrrolidin-1-yl]pyridine-3-carboxamide, 3 μM tezacaftor, 300 nM acute ivacaftor); for EC50: enteroid cells, 18-24 hours incubation, acute 10 μM forskolin and 300 nM ivacaftor, read-out: Ent. A EC50
# Procedure: Base medium (ADF+++) consisted of Advanced DMEM/Ham's F12, 2 mM Glutamax, 10 mM HEPES, […] penicillin/streptomycin.
# Intestinal enteroid maintenance medium (IEMM) consisted of ADF+++, 1×B27 supplement, 1×N2 supplement, 1.25 mM N-acetyl cysteine, 10 mM Nicotinamide, 50 ng/mL hEGF, 10 nM Gastrin, 1 μg/mL hR-spondin-1, 100 ng/mL hNoggin, TGF-b type 1 inhibitor A-83-01, 100 μg/mL Primocin, 10 μM P38 MAPK inhibitor SB202190.
# Bath 1 Buffer consisted of 1 mM MgCl2, 160 mM NaCl, 4.5 mM KCl, 10 mM HEPES, 10 mM Glucose, 2 mM CaCl2.
# Chloride Free Buffer consisted of 1 mM Magnesium Gluconate, 2 mM Calcium Gluconate, 4.5 mM Potassium Gluconate, 160 mM Sodium Gluconate, 10 mM HEPES, 10 mM Glucose.
# Bath1 Dye Solution consisted of Bath 1 Buffer, 0.04% Pluronic F127, 20 μM Methyl Oxonol, 30 μM CaCCinh-A01, 30 μM Chicago Sky Blue.
# Chloride Free Dye Solution consisted of Chloride Free Buffer, 0.04% Pluronic F127, 20 μM Methyl Oxonol, 30 μM CaCCinh-A01, 30 μM Chicago Sky Blue.
# Chloride Free Dye Stimulation Solution consisted of Chloride Free Dye Solution, 10 μM forskolin, 100 μM IBMX, and 300 nM Compound III.
# Human intestinal epithelial enteroid cells were obtained from the Hubrecht Institute for Developmental Biology and Stem Cell Research, Utrecht, The Netherlands and expanded in T-Flasks as previously described (Dekkers J F, Wiegerinck C L, de Jonge H R, Bronsveld I, Janssens H M, de Winter-de Groot K M, Brandsma A M, de Jong N W M, Bijvelds M J C, Scholte B J, Nieuwenhuis E E S, van den Brink S, Clevers H, van der Ent C K, Middendorp S and M Beekman J M. A functional CFTR assay using primary cystic fibrosis intestinal organoids. Nat Med. 2013 July; 19(7):939-45).
# c. Enteroid Cell Harvesting and Seeding
# Cells were recovered in cell recovery solution, collected by centrifugation at 650 rpm for 5 minutes at 4° C., resuspended in TrypLE and incubated for 5 minutes at 37° C. Cells were then collected by centrifugation at 650 rpm for 5 minutes at 4° C. and resuspended in IEMM containing 10 μM ROCK inhibitor (RI). The cell suspension was passed through a 40 μm cell strainer and resuspended at 1×10^6 cells/mL in IEMM containing 10 μM RI. Cells were seeded at 5000 cells/well into multi-well plates and incubated for overnight at 37° C., 95% humidity and 5% CO2 prior to assay.
# d. Membrane Potential Dye, Enteroid Assay A
# Enteroid cells were incubated with test compound in IEMM for 18-24 hours at 37° C., 95% humidity and 5% CO2. […] Briefly, cells were washed 5 times in Bath 1 Buffer. Bath 1 Dye Solution was added, and the cells were incubated for 25 minutes at room temperature. Following dye incubation, cells were washed 3 times in Chloride Free Dye Solution. Chloride transport was initiated by addition of Chloride Free Dye Stimulation Solution and the fluorescence signal was read for 15 minutes. […] Chloride transport was then expressed as a percentage of the chloride transport following treatment with 3 μM N-[(6-amino-2-pyridyl)sulfonyl]-6-(3-fluoro-5-isobutoxy-phenyl)-2-[(4S)-2,2,4-trimethylpyrrolidin-1-yl]pyridine-3-carboxamide, 3 μM (R)-1-(2,2-difluorobenzo[d][1,3]dioxol-5-yl)-N-(1-(2,3-dihydroxypropyl)-6-fluoro-2-(1-hydroxy-2-methylpropan-2-yl)-1H-indol-5-yl)cyclopropanecarboxamide and 300 nM acute N-[2,4-bis(1,1-dimethylethyl)-5-hydroxyphenyl]-1,4-dihydro-4-oxoquinoline-3-carboxamide triple combination control (% Activity).
# Chain of CFTR-mediated chloride transport in human intestinal epithelial enteroid cells (P13569 with tags, fused parts or gaps DEL508-508): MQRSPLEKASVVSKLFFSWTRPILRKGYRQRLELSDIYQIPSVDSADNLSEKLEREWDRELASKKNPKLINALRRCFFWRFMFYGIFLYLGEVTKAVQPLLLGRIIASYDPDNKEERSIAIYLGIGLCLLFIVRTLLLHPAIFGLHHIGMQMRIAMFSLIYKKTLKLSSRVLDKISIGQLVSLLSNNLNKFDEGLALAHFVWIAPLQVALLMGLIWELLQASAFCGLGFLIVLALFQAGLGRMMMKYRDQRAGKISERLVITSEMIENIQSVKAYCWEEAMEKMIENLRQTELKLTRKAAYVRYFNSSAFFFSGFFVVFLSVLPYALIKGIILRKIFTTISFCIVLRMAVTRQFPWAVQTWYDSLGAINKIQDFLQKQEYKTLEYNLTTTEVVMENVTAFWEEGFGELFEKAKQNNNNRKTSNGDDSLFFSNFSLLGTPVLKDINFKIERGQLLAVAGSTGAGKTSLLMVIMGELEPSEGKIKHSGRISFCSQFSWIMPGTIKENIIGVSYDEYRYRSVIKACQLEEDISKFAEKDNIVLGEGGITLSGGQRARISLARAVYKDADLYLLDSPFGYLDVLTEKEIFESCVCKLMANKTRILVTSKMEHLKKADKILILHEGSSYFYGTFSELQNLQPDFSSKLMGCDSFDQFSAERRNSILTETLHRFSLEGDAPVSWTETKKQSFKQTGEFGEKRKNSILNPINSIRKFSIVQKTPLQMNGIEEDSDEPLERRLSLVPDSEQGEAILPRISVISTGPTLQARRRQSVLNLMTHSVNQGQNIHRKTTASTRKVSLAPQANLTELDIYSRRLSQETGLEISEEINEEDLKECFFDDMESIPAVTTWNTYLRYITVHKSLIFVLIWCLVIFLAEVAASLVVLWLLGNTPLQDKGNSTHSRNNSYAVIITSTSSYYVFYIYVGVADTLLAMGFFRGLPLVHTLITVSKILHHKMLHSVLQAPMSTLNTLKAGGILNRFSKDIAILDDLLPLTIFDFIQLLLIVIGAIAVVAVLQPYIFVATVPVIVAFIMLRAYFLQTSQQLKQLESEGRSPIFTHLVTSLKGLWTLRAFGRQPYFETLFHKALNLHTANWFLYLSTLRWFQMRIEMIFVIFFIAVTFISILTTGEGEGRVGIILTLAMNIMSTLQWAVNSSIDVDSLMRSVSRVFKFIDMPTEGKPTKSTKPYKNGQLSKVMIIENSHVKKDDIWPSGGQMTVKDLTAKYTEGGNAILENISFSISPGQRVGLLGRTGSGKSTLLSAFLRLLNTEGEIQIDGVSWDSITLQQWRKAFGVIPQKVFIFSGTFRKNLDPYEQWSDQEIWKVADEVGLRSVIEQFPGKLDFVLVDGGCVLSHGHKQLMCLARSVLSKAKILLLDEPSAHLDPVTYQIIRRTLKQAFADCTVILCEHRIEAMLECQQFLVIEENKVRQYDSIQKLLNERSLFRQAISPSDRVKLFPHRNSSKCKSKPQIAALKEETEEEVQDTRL
SMILES,Ent. A Max Activity (%),EC50 [nM]
"Cc1cccc(C)c1-c1cc2nc(n1)NS(=O)(=O)c1cccc(n1)NC(=O)[C@@H]1C[C@@H](CN(C(=O)OC(C)(C)C)C1)O2 (single isomer, unassigned) [Compound 16, tert-Butyl 19-(2,6-dimethylphenyl)-8,15,15-trioxo-2-oxa-15λ^6-thia-5,9,16,18,21,22-hexaazatetracyclo[15.3.1.13,7.110,14]tricosa-1(21),10,12,14(22),17,19-hexaene-5-carboxylate]",+++ (+++ is >60%),< 1000
"Cc1cccc(C)c1-c1cc2nc(n1)NS(=O)(=O)c1cccc(n1)NC(=O)[C@H]1C[C@H](CN(C(=O)OC(C)(C)C)C1)O2 (single isomer, unassigned) [Compound 17, tert-butyl 19-(2,6-dimethylphenyl)-8,15,15-trioxo-2-oxa-15λ^6-thia-5,9,16,18,21,22-hexaazatetracyclo[15.3.1.13,7.110,14]tricosa-1(21),10,12,14(22),17,19-hexaene-5-carboxylate]",+ (+ is <30%),
"Cc1cccc(C)c1-c1cc2nc(n1)NS(=O)(=O)c1cccc(c1)NC(=O)C1CC(O2)C(C)(C)N(Cc2ccccc2)C1 (single isomer, unassigned) [Compound 73, 5-Benzyl-19-(2,6-dimethylphenyl)-4,4-dimethyl-2-oxa-15λ^6-thia-5,9,16,18,21-pentaazatetracyclo[15.3.1.13,7.110,14]tricosa-1(21),10,12,14(22),17,19-hexaene-8,15,15-trione]",+ (+ is <30%),< 1000
"Cc1cccc(C)c1-c1cc2nc(n1)NS(=O)(=O)c1cccc(c1)NC(=O)C1CC(O2)C(C)(C)N(Cc2ccccc2)C1 (single isomer, unassigned) [Compound 74, 5-benzyl-19-(2,6-dimethylphenyl)-4,4-dimethyl-2-oxa-15λ^6-thia-5,9,16,18,21-pentaazatetracyclo[15.3.1.13,7.110,14]tricosa-1(21),10,12,14(22),17,19-hexaene-8,15,15-trione]",+ (+ is <30%),
"Cc1cccc(C)c1-c1cc2nc(n1)NS(=O)(=O)c1cccc(c1)NC(=O)[C@@H]1C[C@@H](CN(CC3C4(CC4)C34CC4)C1)O2 [Compound 6, (3S,7R)-19-(2,6-Dimethylphenyl)-5-({dispiro[2.0.24.13]heptan-7-yl}methyl)-2-oxa-15λ^6-thia-5,9,16,18,21-pentaazatetracyclo[15.3.1.13,7.110,14]tricosa-1(21),10(22),11,13,17,19-hexaene-8,15,15-trione]",+++ (+++ is >60%),< 1000
"Cc1cccc(C)c1-c1cc2nc(n1)NS(=O)(=O)c1cccc(c1)NC(=O)[C@@H]1C[C@@H](CN(Cc3ccccc3)C1)O2 [Compound 9, (3S,7R)-5-Benzyl-19-(2,6-dimethylphenyl)-2-oxa-15λ^6-thia-5,9,16,18,21-pentaazatetracyclo[15.3.1.13,7.110,14]tricosa-1(20),10,12,14(22),17(21),18-hexaene-8,15,15-trione]",+++ (+++ is >60%),< 1000
"Cc1cccc(C)c1-c1cc2nc(n1)NS(=O)(=O)c1cccc(n1)NC(=O)C1CC(CN(C(=O)OC(C)(C)C)C1)O2 (centres unmarked) [Compound 13, tert-Butyl 19-(2,6-dimethylphenyl)-8,15,15-trioxo-2-oxa-15λ^6-thia-5,9,16,18,21,22-hexaazatetracyclo[15.3.1.13,7.110,14]tricosa-1(21),10,12,14(22),17,19-hexaene-5-carboxylate]",+++ (+++ is >60%),< 1000
Cc1cccc(C)c1-c1cc2nc(n1)NS(=O)(=O)c1cccc(n1)NC(=O)C1CC(CN(C(=O)OC(C)(C)C)C1)O2 (centres unmarked) [Compound 18],+++ (+++ is >60%),3000 to 30000
Cc1cccc(C)c1-c1cc2nc(n1)NS(=O)(=O)c1cccc(c1)NC(=O)[C@@H]1C[C@@H](CN(S(=O)(=O)CC(C)(C)C)C1)O2 [Compound 19],++ (++ is 30-60%),< 1000
Cc1cccc(C)c1-c1cc2nc(n1)NS(=O)(=O)c1cccc(c1)NC(=O)[C@@H]1C[C@@H](CN(CCN(C)C)C1)O2 [Compound 20],+ (+ is <30%),3000 to 30000
Cc1cccc(C)c1-c1cc2nc(n1)NS(=O)(=O)c1cccc(c1)NC(=O)[C@@H]1C[C@@H](CN(CCCC(C)(C)C)C1)O2 [Compound 22],++ (++ is 30-60%),< 1000
Cc1cccc(C)c1-c1cc2nc(n1)NS(=O)(=O)c1cccc(c1)NC(=O)[C@@H]1C[C@@H](CN(CCC(C)(C)C3CC3)C1)O2 [Compound 26],+++ (+++ is >60%),< 1000
Cc1cccc(C)c1-c1cc2nc(n1)NS(=O)(=O)c1cccc(c1)NC(=O)[C@@H]1C[C@@H](CN(CC(C)C(F)(F)F)C1)O2 (some centres unmarked) [Compound 29],+++ (+++ is >60%),< 1000
Cc1cccc(C)c1-c1cc2nc(n1)NS(=O)(=O)c1cccc(c1)NC(=O)[C@@H]1C[C@@H](CN(CC3C(C)(C)C3(C)C)C1)O2 [Compound 31],++ (++ is 30-60%),< 1000
COC(=O)N1C[C@@H]2C[C@H](C1)C(=O)Nc1cccc(c1)S(=O)(=O)Nc1nc(cc(-c3c(C)cccc3C)n1)O2 [Compound 32],+++ (+++ is >60%),1000 to 3000
Cc1cccc(C)c1-c1cc2nc(n1)NS(=O)(=O)c1cccc(c1)NC(=O)[C@@H]1C[C@@H](CN(C(=O)OCC(C)(C)C)C1)O2 [Compound 34],+++ (+++ is >60%),< 1000
CCCCCOC(=O)N1C[C@@H]2C[C@H](C1)C(=O)Nc1cccc(c1)S(=O)(=O)Nc1nc(cc(-c3c(C)cccc3C)n1)O2 [Compound 35],+++ (+++ is >60%),< 1000
Cc1cccc(C)c1-c1cc2nc(n1)NS(=O)(=O)c1cccc(c1)NC(=O)[C@@H]1C[C@@H](CN(C(=O)C3(C(F)(F)F)CC3)C1)O2 [Compound 36],+++ (+++ is >60%),< 1000
Cc1cccc(C)c1-c1cc2nc(n1)NS(=O)(=O)c1cccc(c1)NC(=O)[C@@H]1C[C@@H](CN(C(=O)C3C(C)(C)C3(C)C)C1)O2 [Compound 37],++ (++ is 30-60%),< 1000
Cc1cccc(C)c1-c1cc2nc(n1)NS(=O)(=O)c1cccc(c1)NC(=O)[C@@H]1C[C@@H](CN(CCC3CCOCC3)C1)O2 [Compound 38],++ (++ is 30-60%),1000 to 3000
CCN1C[C@@H]2C[C@H](C1)C(=O)Nc1cccc(c1)S(=O)(=O)Nc1nc(cc(-c3c(C)cccc3C)n1)O2 [Compound 39],+++ (+++ is >60%),3000 to 30000
CCCCN1C[C@@H]2C[C@H](C1)C(=O)Nc1cccc(c1)S(=O)(=O)Nc1nc(cc(-c3c(C)cccc3C)n1)O2 [Compound 40],++ (++ is 30-60%),< 1000
CCCCCCN1C[C@@H]2C[C@H](C1)C(=O)Nc1cccc(c1)S(=O)(=O)Nc1nc(cc(-c3c(C)cccc3C)n1)O2 [Compound 41],+++ (+++ is >60%),< 1000
Cc1cccc(C)c1-c1cc2nc(n1)NS(=O)(=O)c1cccc(c1)NC(=O)C1CN(C(=O)OC(C)(C)C)CCC1O2 (centres unmarked) [Compound 78],++ (++ is 30-60%),1000 to 3000
Cc1cccc(C)c1-c1cc2nc(n1)NS(=O)(=O)c1cccc(c1)NC(=O)[C@H]1C[C@H](CN1C(=O)OC(C)(C)C)O2 [Compound 79],+ (+ is <30%),
